Legend:
[1] = system: Mtb-R-TBA161-C (aspS F526L); assay type: cell-based, Mycobacterium tuberculosis
[2] = system: Mtb carrying pMS2-aspSMmar or pMS2-aspSMmarR168G; assay type: cell-based, Mycobacterium tuberculosis

With `O=c1c2cc(Cl)cc(Cl)c2oc2nc3n(c(=O)c12)CCCS3` [TBA161-C, 9,11-dichloro-3,4-dihydro-chromeno[2′,3′:4,5]pyrimido[2,1-b][1,3]thiazine-6,7-dione] the “MIC90, TBA161-C-resistant Mtb strains” value [1] was “exceeding 20 µM”, the “MIC90 of resistant Mtb strains compared to the parental strain” value [1] was “more than tenfold higher” and the “Increase of MIC90, Mtb overexpressing wild-type aspS vs wild-type strain” value [2] was “fivefold”. For the same compound, the “MIC90, Mtb overexpressing mutated aspS (aspSMmarR168G)” value [2] was over 80 µM.

Source: publication PMC8713996, “An anti-tuberculosis compound screen using a zebrafish infection model identifies an aspartyl-tRNA synthetase inhibitor” (Disease Models & Mechanisms, 2021)
